Results as given in article PMC8509773, “3-Pyridinylidene Derivatives of Chemically Modified Lupane and Ursane Triterpenes as Promising Anticancer Agents by Targeting Apoptosis” (International Journal of Molecular Sciences, 2021).
Marks after values point to notes of the source that are not given here.

Experiments:
Assay type in all cases: cell-based, human
[1] = system: Bak gene; assay: rtPCR gene expression in RPMI cells
Text: (§1) We applied rtPCR techniques in order to investigate the effect of our two compounds on the anti-apoptotic Bcl-XL and Bcl-2 genes as well as the proapoptotic Bak and Bad genes (Table 4). […] Therefore, we may presume that the apoptotic mechanism of both compounds against the A375 cells is not mediated by the tested genes or that alterations in their ratio are the underlying mechanism.

[2] = system: Bcl-XL gene; assay: rtPCR gene expression in RPMI cells
Text: as §1

[3] = system: A375 melanoma cells; assay: DAPI staining assay; conditions: 24 h
Procedure: (§2) For this purpose, the melanoma cell lines selected were A375, RPMI, and SK-MEL-28, given that these three lines have very good correlation coefficient scores with tumor cells originating from a wide range of malignant tumors, based on transcriptional similarity. This feature can also lead to increased clinical applicability potential for the tested substances. The two compounds were tested against three human melanoma cell lines: A375, RPMI, and SK-MEL-28 melanoma cell lines by applying 0.1, 1, and 5 μM solutions, respectively. 4′,6-Diamidino-2-phenylindole (DAPI) is a DNA-specific marker which allows the direct fluorescent blue staining of nuclei against a dark background, widely used in life sciences research. In effect, the DAPI stain binds to chromatin within the nuclei and provides their clear outline under the blue light (405 nm) while the cytoplasmic medium remains non-fluorescent. Moreover, due to its lack of interference with DNA–linker interactions, DAPI stain can provide fine details of nuclei’ shapes instead of merely highlighting their centers which contain the highest concentration of nucleic acids.
(§3) The DAPI assay was performed on three human melanoma cell lines: A375, RPMI, and SK-MEL-28. The cells were cultured in 24-well plates at 2x10^5 cells/well; compounds 6 and 7 in three different concentrations (0.1, 1, and 5 μM); and three DMSO concentrations (0.1, 1, and 5 μM) were used to stimulate cells. The immunofluorescent staining technique was performed according to a previously described protocol and adapted to our laboratory conditions. Thus, after 24 h of stimulation, the cells were fixed with 4% paraformaldehyde and incubated at room temperature for 1 h. Cell permeability was 30 min later performed with 2% Triton X solution in phosphate-buffered saline (PBS). The 300 nM 4’,6-diamidino-2-phenylindole (DAPI) staining was used to visualize cell nuclei under the fluorescence microscope at 40x magnification using CellSens V1.15 software (Olympus, Tokyo, Japan) and Image J software.

[4] = system: RPMI melanoma cells; assay: DAPI staining assay; conditions: 24 h
Procedure: as §2, §3

[5] = system: SK-MEL-28 melanoma cells; assay: DAPI staining assay; conditions: 24 h
Procedure: as §2, §3

[6] = system: RPMI melanoma cells; assay: Cell morphology assessment; conditions: 5 μM, 24 h
Procedure: In order to further investigate the biological effects of these compounds against three human melanoma cell lines, their effect on cell morphology was assessed.
In terms of the RPMI melanoma cell line (Figure 10), a decrease in the number of cells can be observed in direct proportion to the tested concentration; for both compounds, a proapoptotic change occurred in the cellular morphology.

Structure (SMILES)	Bak gene expression, Mean [1]	Bcl-XL gene expression, Mean [2]	Nuclear changes, DAPI staining ([3]; A375, 0.1 μM)	Nuclear changes, DAPI staining ([3]; A375, 1 μM)	Nuclear changes, DAPI staining ([3]; A375, 5 μM)	Nuclear changes, DAPI staining ([4]; 0.1 μM)	Nuclear changes, DAPI staining ([4]; 5 μM)	Nuclear changes, DAPI staining ([5]; SK-Mel-28, 0.1 μM)	Nuclear changes, DAPI staining ([5]; SK-Mel-28, 5 μM)	Effect on cell morphology [6]	Nuclear changes, DAPI staining ([4]; 1 μM)	Nuclear changes, DAPI staining ([5]; SK-Mel-28, 1 μM)
C[C@H]1[C@@H]2[C@H]3CC[C@@H]4[C@@]5(C)C/C(=C\c6cccnc6)C(=O)C(C)(C)[C@@H]5CC[C@@]4(C)[C@]3(C)CC[C@]23CO[C@@]1(C)[C@@H](C(=O)/C=C/c1cccnc1)C3 [Compound 6, 3-Oxo-2-(3-pyridinylidene)-21-[3-(2E-pyridinyl)-prop-2-en-1-one]-20β,28-epoxy-18α,19βH-ursane]	0.066 ***	0.100 **	nuclear fragmentation	nuclear fragmentation	chromatin becomes condensed	massive nucleus condensation and fragmentation	occurrence of nuclear residues	massive nucleus condensation and fragmentation	occurrence of nuclear residues	formation of vacuoles within the cell cytoplasm	–	–
COC(=O)[C@]12CC[C@@H](C(=O)/C=C/c3cccnc3)[C@@H]1[C@H]1CC[C@@H]3[C@@]4(C)C/C(=C\c5cccnc5)C(=O)C(C)(C)[C@@H]4CC[C@@]3(C)[C@]1(C)CC2 [Compound 7, methyl 2,30-bis-(3-pyridinylidene)-3,20-dioxo-lup-28-oate]	0.990 **	1.360 *	nucleus fragmentation	condensation of chromatin	condensation of chromatin	slight nucleus fragmentation	nuclear fragmentation and chromatin condensation	slight nucleus fragmentation	nuclear fragmentation and chromatin condensation	–	nuclear fragmentation and chromatin condensation	nuclear fragmentation and chromatin condensation
